Data as given in paper PMC2783949 (Bioorganic & medicinal chemistry, 2009).
“Also recorded” adds a separate entry of the source.

Assays:
[1] = target: catalytic subunit of E. coli ATCase (Escherichia coli, UniProt P0A786); conditions: for Inhibition Constant (Ki): pH 8.3; for mode of inhibition: relative to carbamyl phosphate
[2] = Oxidation of H-phosphinate 2 into PALA, 31P-NMR monitoring; assay type: physicochemical; conditions: neutralized compound, over a period of two weeks
[3] = system: murine leukemias; conditions: cited from earlier work
[4] = system: solid tumors; conditions: mice; cited from earlier work

catalytic subunit of E. coli ATCase, sequence (P0A786 2-311): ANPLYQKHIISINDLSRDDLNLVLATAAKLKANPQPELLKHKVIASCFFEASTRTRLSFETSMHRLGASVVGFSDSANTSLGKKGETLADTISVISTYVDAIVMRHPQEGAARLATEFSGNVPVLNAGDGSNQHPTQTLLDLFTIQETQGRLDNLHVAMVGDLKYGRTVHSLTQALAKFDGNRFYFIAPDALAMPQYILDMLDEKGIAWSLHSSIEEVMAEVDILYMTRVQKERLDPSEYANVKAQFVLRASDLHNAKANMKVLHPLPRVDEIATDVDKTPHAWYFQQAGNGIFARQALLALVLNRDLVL

## O=C(O)CC(=O)N[C@@H](CC(=O)O)C(=O)O [Compound 40]
[1]
  inhibition of ATCase (in words): none of the carboxylates 38, 40, and 42 displayed any significant inhibition; also recorded: inactive

## O=C(O)C[C@@H](C(=O)O)N1CCP(=O)(O)CC1=O [Compound 27, 2-(4-Hydroxy-2,4-dioxo-4λ[5]-[1,4]azaphosphinan-1-yl)-succinic acid]
[1]
  inhibition of ATCase (in words): significant inhibition; also recorded: micromolar-level inhibitor
[1]; Km of carbamyl phosphate over Ki of inhibitor
  Km(CP)/Ki: 28

## NC(=O)OP(=O)(O)O [carbamyl phosphate]
[1]; substrate of ATCase
  Km: 28 µM

## O=C(O)C[C@H](NC(=O)C[PH](=O)O)C(=O)O [Compound 2]
[2]
  oxidation of 2 into PALA: could not be detected
[1]
  inhibition of ATCase (in words): good inhibitor; also recorded: submicromolar inhibitors

## O=C(O)C[C@@H](C(=O)O)N1CP(=O)(O)CC1=O [Compound 19, 2-(3-Hydroxy-3,5-dioxo-3l5-[1,3]azaphospholidin-1-yl)-succinic acid]
[1]
  inhibition of ATCase (in words): inactive
  Inhibition Constant (Ki): inactive

## O=C(O)C[C@H](NC(=O)CP(=O)(O)CCO)C(=O)O [Compound 22]
[1]
  inhibition of ATCase (in words): significant inhibitory activity
  mode of inhibition: uncompetitive

## O=C(O)CCC(=O)N[C@@H](CC(=O)O)C(=O)O [Compound 42]
[1]
  inhibition of ATCase (in words): none of the carboxylates 38, 40, and 42 displayed any significant inhibition

## O=C(O)C[C@H](NC(=O)CC(C(=O)O)C(=O)O)C(=O)O [Compound 38]
[1]
  inhibition of ATCase (in words): none of the carboxylates 38, 40, and 42 displayed any significant inhibition

## O=C(O)C[C@H](NC(=O)CP(=O)(O)O)C(=O)O [Compound 1, N-phosphonacetyl-L-aspartate]
[3]
  effect on murine leukemias: murine leukemias were resistant
[4]
  effect on solid tumors: eradicated solid tumors in mice

## O=C(O)C[C@H](NC(=O)CP(=O)(O)CC(=O)O)C(=O)O [Compound 24]
[1]
  mode of inhibition: competitive inhibitor

## O=C(O)C[C@H](NC(=O)C[PH](=O)CO)C(=O)O (some centres unmarked) [Compound 3]
[1]
  inhibition of ATCase (in words): submicromolar inhibitors

## O=C(O)C[C@H](NC(=O)OCP(=O)(O)O)C(=O)O [Compound 32, 2-Phosphonomethyl-oxycarbonylamino-succinic acid]
[1]
  inhibition of ATCase (in words): does not inhibit ATCase at all
  Inhibition Constant (Ki): inactive

## O=C(O)C[C@@H](C(=O)O)N1CCP(=O)(O)CC1 [Compound 14]
[1]
  inhibition of ATCase (in words): totally inactive
  Inhibition Constant (Ki): inactive
